Assay results taken from patent US11180504B2 (ORCHID PHARMA LTD., priority 2016, dated 2021).
≈ marks a conversion by molar mass, not a printed value. Like-named read-outs stand apart in the source and are kept apart here.

How the values were obtained:
[1] = system: methicillin-sensitive Staphylococcus aureus; assay: MIC by broth micro-dilution (CLSI), methicillin-sensitive S. aureus; format: cell-based; conditions: MSSA S. aureus ATCC29213
[2] = system: carbapenem sensitive Escherichia coli; assay: MIC by broth micro-dilution (CLSI), carbapenem sensitive E. coli; format: cell-based
[3] = system: carbapenemase producing K. pneumoniae; assay: MIC by broth micro-dilution (CLSI), carbapenemase producing K. pneumoniae; format: cell-based, Klebsiella pneumoniae
[4] = system: carbapenem sensitive Pseudomonas aeruginosa; assay: MIC by broth micro-dilution (CLSI), carbapenem sensitive P. aeruginosa; format: cell-based
[5] = Staphylococcus aureus, ATCC 29213 / MSSA, read-out: MIC
[6] = Escherichia coli, ATCC25922, ESBL −ve E. coli ATCC25922, read-out: MIC
[7] = Klebsiella pneumoniae, ATCCBAA1705, KPC-2 K. pneumoniae ATCC BAA-1705, read-out: MIC
[8] = Pseudomonas aeruginosa, ATCC27853, Meropenem susceptible P. aeruginosa ATCC27853, read-out: MIC
[9] = KPC-2 K. pneumoniae ATCC BAA-1705
[10] = Meropenem susceptible P. aeruginosa ATCC27853

MIC [1, 5] [µg/mL] | MIC [2, 6] [µg/mL] | MIC [3, 7] [µg/mL] | MIC [4, 8] [µg/mL] | MIC [1] [µg/mL] | MIC ([2]; ESBL −ve E. coli ATCC25922) [µg/mL] | MIC [3, 9] [µg/mL] | MIC [4, 10] [µg/mL] | SMILES
2 (≈ 3.55 µM) | 0.25 (≈ 0.444 µM) | 1 (≈ 1.77 µM) | 2 (≈ 3.55 µM) |  |  |  |  | C[C@@H](NC(=O)Cn1cnnn1)[C@H]1C(=O)N2C(C(=O)O)=C(S[C@@H]3CN[C@H](C(=O)N4CC[C@@H](N)[C@H](O)C4)C3)[C@H](C)[C@H]12 [Example 553, (4R,5S,6R)-6-((R)-1-(2-(1H-tetrazol-1-yl)acetamido)ethyl)-3-((3S,5S)-5-((3R,4R)-4-amino-3-hydroxypiperidine-1-carbonyl)pyrrolidin-3-ylthio)-4-methyl-7-oxo-1-azabicyclo[3.2.0]hept-2-ene-2-carboxylic acid]
4 (≈ 6.64 µM) | 0.25 (≈ 0.415 µM) | 2 (≈ 3.32 µM) | 16 (≈ 26.5 µM) |  |  |  |  | C[C@@H](NC(=O)Cn1cnnn1)[C@H]1C(=O)N2C(C(=O)O)=C(S[C@@H]3CN[C@H](C(=O)N4CCN([C@H]5CCNC5)CC4)C3)[C@H](C)[C@H]12 [Example 406, (4R,5S,6R)-6-((R)-1-(2-(1H-tetrazol-1-yl)acetamido)ethyl)-4-methyl-7-oxo-3-((3S,5S)-5-(4-((S)-pyrrolidin-3-yl]piperazine-1-carbonyl]pyrrolidin-3-ylthio)-1-azabicyclo[3.2.0]hept-2-ene-2-carboxylic acid]
2 (≈ 3.47 µM) | 0.125 (≈ 0.217 µM) | 2 (≈ 3.47 µM) | 8 (≈ 13.9 µM) |  |  |  |  | C[C@@H](NC(=O)Cn1cnnn1)[C@H]1C(=O)N2C(C(=O)O)=C(S[C@@H]3CN[C@H](C(=O)N4CC[C@@H](NC(=N)N)C4)C3)[C@H](C)[C@H]12 [Example 399, (4R,5S,6R)-6-((R)-1-(2-(1H-tetrazol-1-yl)acetamido)ethyl)-3-((3S,5S)-5-((R)-3-guanidinopyrrolidine-1-carbonyl)pyrrolidin-3-ylthio)-4-methyl-7-oxo-1-azabicyclo[3.2.0]hept-2-ene-2-carboxylic acid]
 |  |  |  | 4 (≈ 6.63 µM) | 0.25 (≈ 0.414 µM) | 2 (≈ 3.31 µM) | 2 (≈ 3.31 µM) | C[C@@H](NC(=O)Cn1cnnn1)[C@H]1C(=O)N2C(C(=O)O)=C(S[C@@H]3CN[C@H](C(=O)N4CCC5CNCC5(CO)C4)C3)[C@H](C)[C@H]12 (single isomer, unassigned) [Example 537]
2 (≈ 3.55 µM) | 0.125 (≈ 0.222 µM) | 8 (≈ 14.2 µM) | 8 (≈ 14.2 µM) |  |  |  |  | COc1nnnn1CC(=O)N[C@H](C)[C@H]1C(=O)N2C(C(=O)O)=C(S[C@@H]3CN[C@H](C(=O)N4CC[C@@H](N)C4)C3)[C@H](C)[C@H]12 [Example 386, (4R,5S,6R)-3-((3S,5S)-5-((R)-3-aminopyrrolidine-1-carbooyl)pyrrolidin-3-ylthio)-6-((R)-1-(2-(5-methoxy-1H-tetrazol-1-yl)acetamido)ethyl)-4-methyl-7-oxo-1-azabicyclo[3.2.0]hept-2-ene-2-carboxylic acid]
2 (≈ 3.69 µM) | 0.25 (≈ 0.461 µM) | 1 (≈ 1.84 µM) | 128 (≈ 236 µM) |  |  |  |  | C[C@@H](NC(=O)Cn1nnnc1C(F)F)[C@H]1C(=O)N2C(C(=O)O)=C(S[C@@H]3CN[C@H](C(=O)N(C)C)C3)[C@H](C)[C@H]12 [Example 350, (4R,5S,6R)-6-((R)-1-(2-(5-(difluoromethyl)-1H-tetrazol-1-yl)acetamido)ethyl)-3-((3S,5S)-5-(dimethylcarbamoyl)pyrrolidin-3-ylthio)-4-methyl-7-oxo-1-azabicyclo[3.2.0]hept-2-ene-2-carboxylic acid]
128 (≈ 252 µM) | 4 (≈ 7.86 µM) | 8 (≈ 15.7 µM) | 16 (≈ 31.5 µM) |  |  |  |  | CNCC(=O)N[C@H](C)[C@H]1C(=O)N2C(C(=O)O)=C(S[C@@H]3CN[C@H](C(=O)N4C[C@@H](N)C[C@H]4C)C3)[C@H](C)[C@H]12 [Example 287]
4 (≈ 6.46 µM) | 0.25 (≈ 0.404 µM) | 2 (≈ 3.23 µM) | 4 (≈ 6.46 µM) |  |  |  |  | C[C@@H](NC(=O)Cn1cnnn1)[C@H]1C(=O)N2C(C(=O)O)=C(S[C@@H]3CN[C@H](C(=O)N4CCC(CNC(=O)CN)CC4)C3)[C@H](C)[C@H]12 [Example 422, (4R,5S,6R)-6-((R)-1-(2-(1H-tetrazol-1-yl)acetamido)ethyl)-3-((3S,5S)-5-(4-((2-aminoacetamido)methyl)piperidine-1-carbonyl)pyrrolidin-3-ylthio)-4-methyl-7-oxo-1-azabicyclo[3.2.0]hept-2-ene-2-carboxylic acid]

Second part, the molecule before the results:

SMILES | MIC [1, 5] [µg/mL] | MIC [2, 6] [µg/mL] | MIC [3, 7] [µg/mL] | MIC [4, 8] [µg/mL] | MIC [1] [µg/mL] | MIC ([2]; ESBL −ve E. coli ATCC25922) [µg/mL] | MIC [3, 9] [µg/mL] | MIC [4, 10] [µg/mL]
C[C@@H](NC(=O)Cn1cnnn1)[C@H]1C(=O)N2C(C(=O)O)=C(S[C@@H]3CN[C@H](C(=O)N4CCN(C(=O)CNC(=N)N)CC4)C3)[C@H](C)[C@H]12 [Example 446, (4R,5S,6R)-6-((R)-1-(2-(1H-tetrazol-1-yl)acetamido)ethyl)-3-((3S,5S)-5-(4-(2-guanidinoacetyl)piperazine-1-carbonyl)pyrrolidin-3-ylthio)-4-methyl-7-oxo-1-azabicyclo[3.2.0]hept-2-ene-2-carboxylic acid] | 2 (≈ 3.16 µM) | 0.25 (≈ 0.395 µM) | 1 (≈ 1.58 µM) | 4 (≈ 6.32 µM) |  |  |  | 
C[C@@H](NC(=O)C(F)F)[C@H]1C(=O)N2C(C(=O)O)=C(S[C@@H]3CN[C@H](C(=O)N4CCC5CNCCC54)C3)[C@H](C)[C@H]12 (stereo partly drawn) [Example 486, (4R,5S,6R)-6-((R)-1-(2,2-difluoroacetamido)ethyl)-4-methyl-3-((3S,5S)-5-(octahydro-1H-pyrrolo[3,2-c]pyridine-1-carbonyl)pyrrolidin-3-ylthio)-7-oxo-1-azabicyclo[3.2.0]hept-2-ene-2-carboxylic acid] | 2 (≈ 3.69 µM) | 0.5 (≈ 0.923 µM) | 8 (≈ 14.8 µM) | 64 (≈ 118 µM) |  |  |  | 
C[C@@H](NC(=O)Cn1cnnn1)[C@H]1C(=O)N2C(C(=O)O)=C(S[C@@H]3CN[C@H](C(=O)N4C[C@@H](N)C[C@H]4CNS(N)(=O)=O)C3)[C@H](C)[C@H]12 [Example 454, (4R,5S,6R)-6-((R)-1-(2-(1H-tetrazol-1-yl)acetamido)ethyl)-3-((3S,5S)-5-((2S,4S)-4-amino-2-((sulfamoylamino)-methyl)pyrrolidine-1-carbonyl)pyrrolidin-3-ylthio)-4-methyl-7-oxo-1-azabicyclo[3.2.0]hept-2-ene-2-carboxylic acid] | 8 (≈ 12.5 µM) | 0.5 (≈ 0.779 µM) | 4 (≈ 6.23 µM) | 4 (≈ 6.23 µM) |  |  |  | 
C[C@@H](NC(=O)C(N)C(F)(F)F)[C@H]1C(=O)N2C(C(=O)O)=C(S[C@@H]3CN[C@H](C(=O)N(C)C)C3)[C@H](C)[C@H]12 (stereo partly shown) [Example 388] | 8 (≈ 15.8 µM) | 2 (≈ 3.94 µM) | 8 (≈ 15.8 µM) | > 128 |  |  |  | 
C[C@@H](NC(=O)Cn1cnnn1)[C@H]1C(=O)N2C(C(=O)O)=C(S[C@@H]3CN[C@H](C(=O)N4CCCC45CCCNC5)C3)[C@H](C)[C@H]12 (single isomer, unassigned) [Example 504] |  |  |  |  | 2 (≈ 3.4 µM) | 0.5 (≈ 0.851 µM) | 4 (≈ 6.81 µM) | 32 (≈ 54.4 µM)
C[C@@H](NC(=O)Cn1cnnn1)[C@H]1C(=O)N2C(C(=O)O)=C(S[C@@H]3CN[C@H](C(=O)N4CCN(CCNC(=N)N)CC4)C3)[C@H](C)[C@H]12 [Example 432, (4R,5S,6R)-6-((R)-1-(2-(1H-tetrazol-1-yl)acetamido)ethyl)-3-((3S,5S)-5-(4-(2-guanidinoethyl)piperazine-1-carbonyl)pyrrolidin-3-ylthio)-4-methyl-7-oxo-1-azabicyclo[3.2.0]hept-2-ene-2-carboxylic acid] | 2 (≈ 3.23 µM) | 0.25 (≈ 0.404 µM) | 1 (≈ 1.62 µM) | 1 (≈ 1.62 µM) |  |  |  | 
C[C@@H](NC(=O)C(F)F)[C@H]1C(=O)N2C(C(=O)O)=C(S[C@@H]3CN[C@H](CN)C3)[C@H](C)[C@H]12 [Example 244] | 1 (≈ 2.39 µM) | 1 (≈ 2.39 µM) | 4 (≈ 9.56 µM) | 64 (≈ 153 µM) |  |  |  | 
C[C@@H](NC(=O)Cn1cnnn1)[C@H]1C(=O)N2C(C(=O)O)=C(Sc3cnn(C[C@@H]4CCNC4)c3)[C@H](C)[C@H]12 [Example 593, (4R,5S,6R)-6-((R)-1-(2-(1H-tetrazol-1-yl)acetamido)ethyl)-4-methyl-7-oxo-3-(1-((R)-pyrrolidin-3-ylmethyl)-1H-pyrazol-4-ylthio)-1-azabicyclo[3.2.0]hept-2-ene-2-carboxylic acid] | 16 (≈ 31.9 µM) | 1 (≈ 1.99 µM) | 32 (≈ 63.8 µM) | 128 (≈ 255 µM) |  |  |  | 
C[C@@H](NC(=O)Cn1nc(C(F)(F)F)nc1N)[C@H]1C(=O)N2C(C(=O)O)=C(S[C@@H]3CN[C@H](C(=O)N(C)C)C3)[C@H](C)[C@H]12 [Example 320, (4R,5S,6R)-6-((R) - 1-(2-(5-amino-3-(trifluoromethyl) - 1H-1,2,4-triazol-1-yl)acetamido)ethyl)-3-((3S,5S)-5-(dimethylcarbamoyl)pyrrolidin-3-ylthio)-4-methyl-7-oxo-1-azabiayclo[3.2.0]hept-2-ene-2-carboxylic acid] | 2 (≈ 3.48 µM) | 1 (≈ 1.74 µM) | 4 (≈ 6.96 µM) | 128 (≈ 223 µM) |  |  |  | 
C[C@@H](NC(=O)Cn1cnnn1)[C@H]1C(=O)N2C(C(=O)O)=C(S[C@@H]3CN[C@H](C(=O)Nc4ccc(CN)cc4)C3)[C@H](C)[C@H]12 [Example 484, (4R,5S,6R)-6-((R)-1-(2-(1H-tetrazol-1-yl)acetamido)ethyl)-3-((3S,5S)-5-(4-(aminomethyl)phenyl-carbamoyl)-pyrrolidin-3-ylthio)-4-methyl-7-oxo-1-azabicyclo[3.2.0]hept-2-ene-2-carboxylic acid] | 2 (≈ 3.51 µM) | 1 (≈ 1.76 µM) | 4 (≈ 7.02 µM) | 32 (≈ 56.2 µM) |  |  |  | 
C[C@@H](NC(=O)C(F)F)[C@H]1C(=O)N2C(C(=O)O)=C(S[C@@H]3CN[C@H](CNC(=O)[C@@H]4C[C@@H](N)CN4)C3)[C@H](C)[C@H]12 [Example 261] | 2 (≈ 3.77 µM) | 2 (≈ 3.77 µM) | 16 (≈ 30.2 µM) | 64 (≈ 121 µM) |  |  |  | 
